Source: publication PMC12295124, “Quercetin, Catechin, and Diosmin as Modulators of Haloperidol–HSA Interactions: A Biophysical and Computational Study” (International Journal of Molecular Sciences, 2025)

Target: T1, human serum albumin (Homo sapiens, UniProt P02768)
T1 construct: gene ALB
Experiment: intrinsic Trp fluorescence quenching (excitation […] nm, […] K), double-log plot; Kb is an association constant
Type: binding
Settings: read-out: Kb/dm^3 mol^-1 (converted)

T1 sequence (P02768 25-609): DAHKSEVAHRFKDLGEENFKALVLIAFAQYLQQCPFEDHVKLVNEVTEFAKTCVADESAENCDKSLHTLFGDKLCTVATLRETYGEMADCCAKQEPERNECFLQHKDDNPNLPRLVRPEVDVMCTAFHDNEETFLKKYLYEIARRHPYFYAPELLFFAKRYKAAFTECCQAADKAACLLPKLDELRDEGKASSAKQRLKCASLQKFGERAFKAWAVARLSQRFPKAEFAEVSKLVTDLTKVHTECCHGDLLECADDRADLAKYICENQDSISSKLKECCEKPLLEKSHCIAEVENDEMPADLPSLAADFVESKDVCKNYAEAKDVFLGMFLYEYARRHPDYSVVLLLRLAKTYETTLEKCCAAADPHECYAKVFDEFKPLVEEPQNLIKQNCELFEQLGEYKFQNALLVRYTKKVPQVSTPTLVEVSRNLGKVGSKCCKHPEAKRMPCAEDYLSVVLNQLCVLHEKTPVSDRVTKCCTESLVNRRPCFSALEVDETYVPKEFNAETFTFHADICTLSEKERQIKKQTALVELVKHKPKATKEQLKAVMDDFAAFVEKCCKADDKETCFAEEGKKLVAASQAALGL

Kd: 225 µM
Structure (SMILES): O=C(CCCN1CCC(O)(c2ccc(Cl)cc2)CC1)c1ccc(F)cc1 [HPD, haloperidol]
